Reference: article PMC4585259 (Frontiers in Pharmacology, 2015)
Where two headings read alike, the source gives them in different places.

Molecular target: T1, rNav1.2 sodium channels (Rattus norvegicus, UniProt P04775)
T1 construct: host or cells: HEK-293
Assay: QPatch automated patch clamp, inhibition of sodium currents evoked by 5 Hz trains at three extracellular pH values
Type: cell-based
Conditions: for class of pH-dependence pattern (cluster analysis): Ward's method on 18 variables of affinity, reversibility, onset; for τoffset / τonset: concentration (lidocaine 300 μM, memantine 30 μM)
Procedure: HEK-293 cells stably expressing rNav1.2 sodium channels were obtained from NeuroSearch (Ballerup, Denmark). The cells were grown in Dulbecco's modified Eagle medium supplemented with 10% FBS. Prior to use, the cells were trypsinized and subsequently kept in suspension in the QPatch cell storage facility in CHO-S- SFM-II medium.
Composition of the extracellular solution was: (in mM): 140 NaCl, 3 KCl, 1 CaCl2 1 MgCl2, 0.1 CdCl2, 20 TEA-Cl, 5 HEPES, adjusted to pH 7.3, Osmolality: 320 mOsm. […] Drugs were synthesized in Gedeon Richter Plc. […] The full list of drugs, with their three-letter codes, concentration, as well as their main therapeutic indication and main mechanism of action are shown in Table 1. […] The choice of concentrations used in this study may seem unusually high.
Data were sampled at a frequency of 25 kHz and filtered at 5 kHz. Junction potential was calculated to be −11 mV and was corrected for. […] Cells having membrane resistance < 500 MOhm, series resistance > 9 MOhm, or capacitance > 22 pF were excluded from analysis. The experimental protocol was also identical to the one used in our previous study: sodium channels were activated by 5 Hz trains of 5 depolarizations (−90 to −10 mV) repeated in every 20 s. In this study, however, the same control–drug-application–washout sequence was repeated four times: at neutral, acidic, alkalic, and again neutral pH. The peak amplitudes of sodium currents throughout the whole experiment are shown plotted against time in Figure 1 and Supplementary Figure 1.
Initial analysis, including subtraction of leak and capacitive artifacts, as well as peak detection were done in the QPatch software. […] All experiments were normalized to the amplitude of the current evoked by the first depolarization of the last train under control conditions. […] For all four drug applications in an experiment, apparent affinity, onset and offset time constants as well as reversibility values were calculated. […] (This method is equivalent to applying the Lineweaver-Burk plot method using a single concentration.) Reversibility values were calculated from control (c), inhibited (i), and wash-out (w) amplitudes as follows: Reversibility = (w-i)/(c-i). Reversibility values should not be regarded as experimental platform-independent properties of compounds. […] However, reversibility values are a valuable source of information regarding physicochemical differences between individual drugs, or between effects of the same drug under different extracellular pH conditions. Onset and offset time constants were determined by single exponential fitting to individual experiments. For neutral pH numerical data were given as the average of the data from the first and the last drug applications. Thin black lines on Figure 1 and Supplemental Figure 1 show the average of five fitted exponentials, (not the exponential fitted to the averaged normalized amplitudes). The numerical values of apparent affinity, onset and offset time constants and reversibility are shown in Table 2, and their relative position is illustrated in Figure 2. Affinity and time constant values were logarithmically transformed for statistics, therefore we show their geometric mean. For recovery data no transformation was done, and we show arithmetic mean values. Significance values were calculated using paired, two-tailed Student's t-test based on five pairs of apparent affinity (log transform), time constant (log transform), or reversibility values obtained from five individual experiments. Because of the large number of comparisons in this study, we accepted p < 0.01 as significant. Cluster analysis was done using Ward's minimum variance method, with Euclidean distance measure. Data were normalized by subtracting the mean (after logarithmic transformation in the case of apparent affinity and time constants), and dividing by the standard deviation.

[1] = pH 6.0, single concentration (lidocaine 300 μM, memantine 30 μM), geometric mean of 5, read-out: apparent affinity
[2] = pH 7.3, single concentration (lidocaine 300 μM, memantine 30 μM), geometric mean of 5, read-out: apparent affinity
[3] = pH 8.6, single concentration (lidocaine 300 μM, memantine 30 μM), geometric mean of 5, read-out: apparent affinity
[4] = pH=6.0, cc 300 mM, read-out: Apparent Affinity
[5] = pH=7.3, cc 300 mM, read-out: Apparent Affinity
[6] = pH=8.6, cc 300 mM, read-out: Apparent Affinity

T1 sequence (P04775 whole entry): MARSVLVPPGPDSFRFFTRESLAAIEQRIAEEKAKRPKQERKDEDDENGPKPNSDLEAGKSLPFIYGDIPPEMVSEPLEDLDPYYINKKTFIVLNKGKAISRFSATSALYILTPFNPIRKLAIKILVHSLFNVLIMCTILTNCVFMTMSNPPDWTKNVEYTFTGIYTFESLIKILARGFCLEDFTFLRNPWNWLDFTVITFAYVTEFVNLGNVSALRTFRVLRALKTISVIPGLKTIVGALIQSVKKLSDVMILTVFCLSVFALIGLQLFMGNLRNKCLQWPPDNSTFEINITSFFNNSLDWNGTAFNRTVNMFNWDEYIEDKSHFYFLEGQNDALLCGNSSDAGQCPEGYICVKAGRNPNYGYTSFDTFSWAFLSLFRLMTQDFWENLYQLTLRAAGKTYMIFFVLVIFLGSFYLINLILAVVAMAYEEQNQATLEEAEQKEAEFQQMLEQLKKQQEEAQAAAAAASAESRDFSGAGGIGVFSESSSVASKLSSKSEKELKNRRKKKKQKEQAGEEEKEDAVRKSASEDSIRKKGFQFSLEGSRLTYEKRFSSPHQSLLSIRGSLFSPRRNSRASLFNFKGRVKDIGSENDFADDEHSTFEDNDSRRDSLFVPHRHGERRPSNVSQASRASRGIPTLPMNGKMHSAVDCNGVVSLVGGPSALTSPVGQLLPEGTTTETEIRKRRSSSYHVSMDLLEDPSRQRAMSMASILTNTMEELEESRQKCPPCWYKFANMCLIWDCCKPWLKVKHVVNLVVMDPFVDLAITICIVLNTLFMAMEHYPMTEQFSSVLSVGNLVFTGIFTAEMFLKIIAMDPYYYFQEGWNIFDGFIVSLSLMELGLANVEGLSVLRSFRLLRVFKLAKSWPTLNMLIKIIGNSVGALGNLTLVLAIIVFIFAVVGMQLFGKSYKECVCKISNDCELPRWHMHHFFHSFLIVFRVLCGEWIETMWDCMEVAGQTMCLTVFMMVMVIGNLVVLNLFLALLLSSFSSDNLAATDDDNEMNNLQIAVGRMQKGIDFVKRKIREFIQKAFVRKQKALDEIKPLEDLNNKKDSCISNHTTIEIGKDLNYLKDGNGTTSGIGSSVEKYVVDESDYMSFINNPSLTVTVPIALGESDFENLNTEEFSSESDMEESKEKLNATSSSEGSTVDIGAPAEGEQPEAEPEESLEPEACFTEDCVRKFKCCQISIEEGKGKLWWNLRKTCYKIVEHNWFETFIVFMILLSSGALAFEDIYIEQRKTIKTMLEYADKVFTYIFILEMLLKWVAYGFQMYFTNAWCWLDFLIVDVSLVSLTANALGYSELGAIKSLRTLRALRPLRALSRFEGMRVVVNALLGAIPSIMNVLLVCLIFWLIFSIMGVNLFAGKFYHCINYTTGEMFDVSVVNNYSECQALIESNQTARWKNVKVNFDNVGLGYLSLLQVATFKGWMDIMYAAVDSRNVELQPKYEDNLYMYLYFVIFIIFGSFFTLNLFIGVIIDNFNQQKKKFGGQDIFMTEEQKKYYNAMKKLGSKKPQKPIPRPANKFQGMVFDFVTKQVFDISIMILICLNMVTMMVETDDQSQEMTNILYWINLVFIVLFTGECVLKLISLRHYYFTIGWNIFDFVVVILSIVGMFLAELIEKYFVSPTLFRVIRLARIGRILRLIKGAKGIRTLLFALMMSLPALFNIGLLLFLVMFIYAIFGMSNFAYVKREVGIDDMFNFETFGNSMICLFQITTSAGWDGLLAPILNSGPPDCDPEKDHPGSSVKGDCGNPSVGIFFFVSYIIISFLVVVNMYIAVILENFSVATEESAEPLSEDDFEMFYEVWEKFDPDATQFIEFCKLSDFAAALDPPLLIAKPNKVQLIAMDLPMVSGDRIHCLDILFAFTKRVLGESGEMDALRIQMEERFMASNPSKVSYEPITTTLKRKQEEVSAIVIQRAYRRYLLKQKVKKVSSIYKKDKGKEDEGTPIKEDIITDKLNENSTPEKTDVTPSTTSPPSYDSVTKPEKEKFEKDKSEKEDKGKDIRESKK

Row | Compound | class of pH-dependence pattern (cluster analysis) | Ratio Reversibility (pH 6.0/7.3, cc 300 mM) | Ratio Tau Offset (pH 6.0/7.3, cc 300 mM) | Ratio Tau Onset (pH 6.0/7.3, cc 300 mM) | log Ratio App Aff (pH 6.0/7.3, cc 300 mM) | Ratio Reversibility (pH 6.0/8.6, cc 300 mM) | Ratio Tau Offset (pH 6.0/8.6, cc 300 mM) | Ratio Tau Onset (pH 6.0/8.6, cc 300 mM) | log Ratio App Aff (pH 6.0/8.6, cc 300 mM) | τoffset (pH 6.0) [s] | τonset (pH 6.0) [s] | Kd [1] [µM] | Ratio Reversibility (pH 7.3/8.6, cc 300 mM) | Ratio Tau Offset (pH 7.3/8.6, cc 300 mM) | τoffset (pH 7.3) [s] | τonset (pH 7.3) [s] | Kd [2] [µM] | τoffset (pH 8.6) [s] | τonset (pH 8.6) [s] | Kd [3] [µM] | also measured
1 | NC(=O)N1c2ccccc2C=Cc2ccccc21 [carbamazepine] | Class A | 0.728 | 1.229 | 0.800 | -0.028 | 0.955 | 1.490 | 0.800 | 0.00109 | 12.30 | 4.00 | 545 | 1.312 | 1.212 | 10.01 | 5.00 | 581 | 8.25 | 5.00 | 543 | Ratio Tau Onset (pH 7.3/8.6, cc 300 mM): 1.000; log Ratio App Aff (pH 7.3/8.6, cc 300 mM): 0.029; Reversibility (pH=6.0, cc 300 mM): 0.67; Kd [4]: 545 µM; Reversibility (pH=7.3, cc 300 mM): 0.92; Kd [5]: 581 µM; Reversibility (pH=8.6, cc 300 mM): 0.70; Kd [6]: 543 µM
2 | CN(C)CCCN1c2ccccc2Sc2ccc(Cl)cc21 [chlorpromazine] | Class G | – | – | – | – | – | – | – | – | 23.60 | 19.40 | 37.5 | – | – | 28.40 | 22.20 | 31.4 | 33.00 | 29.40 | 17.2 | alkalization-induced recovery (neutral-to-alkalic solution exchange, in words): prominent alkalization-induced recovery; reversibility at all three pH values (pH 6.0, 7.3 and 8.6): below 0.6; Ratio Reversibility (pH 6.0/7.3, cc 30 mM): 1.906; Ratio Tau Offset (pH 6.0/7.3, cc 30 mM): 0.831; Ratio Tau Onset (pH 6.0/7.3, cc 30 mM): 0.874; log Ratio App Aff (pH 6.0/7.3, cc 30 mM): 0.077; Ratio Reversibility (pH 6.0/8.6, cc 30 mM): 1.432; Ratio Tau Offset (pH 6.0/8.6, cc 30 mM): 0.715; Ratio Tau Onset (pH 6.0/8.6, cc 30 mM): 0.660; log Ratio App Aff (pH 6.0/8.6, cc 30 mM): 0.339; Ratio Reversibility (pH 7.3/8.6, cc 30 mM): 0.751; Ratio Tau Offset (pH 7.3/8.6, cc 30 mM): 0.861; Ratio Tau Onset (pH 7.3/8.6, cc 30 mM): 0.755; log Ratio App Aff (pH 7.3/8.6, cc 30 mM): 0.261; Reversibility (pH=6.0, cc 30 mM): 0.53; Kd (pH=6.0, cc 30 mM, read-out: Apparent Affinity): 37.5 µM; Reversibility (pH=7.3, cc 30 mM): 0.28; Kd (pH=7.3, cc 30 mM, read-out: Apparent Affinity): 31.4 µM; Reversibility (pH=8.6, cc 30 mM): 0.37; Kd (pH=8.6, cc 30 mM, read-out: Apparent Affinity): 17.2 µM
3 | CNCCCN1c2ccccc2CCc2ccccc21 [desipramine] | Class C | – | – | – | – | – | – | – | – | 56.80 | 65.77 | – | – | – | 57.40 | 44.40 | – | 59.00 | 26.92 | – | effect of alkalic pH on onset/offset kinetics (in words): acceleration of onset; Reversibility (pH=6.0, cc 30 mM): 0.64; Reversibility (pH=7.3, cc 30 mM): 0.42; Reversibility (pH=8.6, cc 30 mM): 0.11
4 | O=C(NCC1CCCCN1)c1cc(OCC(F)(F)F)ccc1OCC(F)(F)F (centres unmarked) [flecainide] | Class B | 1.142 | 1.344 | 2.358 | 0.419 | 2.794 | 3.109 | 7.632 | 0.583 | 91.40 | 58.00 | 68.1 | 2.446 | 2.313 | 68.00 | 24.60 | 25.9 | 29.40 | 7.60 | 17.8 | effect of alkalic pH on onset/offset kinetics (in words): significant acceleration of both onset and offset; Ratio Tau Onset (pH 7.3/8.6, cc 300 mM): 3.237; log Ratio App Aff (pH 7.3/8.6, cc 300 mM): 0.164; Reversibility (pH=6.0, cc 300 mM): 0.64; Kd [4]: 68.1 µM; Reversibility (pH=7.3, cc 300 mM): 0.56; Kd [5]: 25.9 µM; Reversibility (pH=8.6, cc 300 mM): 0.23; Kd [6]: 17.8 µM
